Results on 35 molecules are retold here after patent US20030004172A1, “Fused pyrimidinone matrix metalloproteinase inhibitors” (priority 2001, published 2003).

As usually defined, the IC50 is the concentration at which inhibition is half-maximal.

This assay concerns the target MMP-13CD (catalytic domain of collagenase-3) (Homo sapiens, UniProt P45452). Briefly: Thiopeptolide substrate hydrolysis inhibition assay, MMP-13CD. The conditions noted are these: Table I; thiopeptolide substrate, HEPES pH 7.0, 22° C.; read-out: MMP-13CD IC50. The assay is classed as biochemical. The text has this:
Thiopeptolide substrates show virtually no decomposition or hydrolysis at or below neutral pH in the absence of a matrix metalloproteinase enzyme.
Turning to `Cn1c(=O)n(Cc2ccccc2)c(=O)c2cc(C(=O)OCC3CCC3)sc21` [Example 157, 3-Benzyl-1-methyl-2,4-dioxo-1,2,3,4-tetrahydro-thieno[2,3-d]pyrimidine-6-carboxylic acid cyclobutylmethyl ester], the IC50 is > 100 µM. Turning to `Cn1c(=O)n(CN2C(=O)c3ccccc3C2=O)c(=O)c2cc(C(=O)OCc3ccccc3)sc21` [Example 117, 3-(1,3-Dioxo-1,3-dihydro-isoindol-2-ylmethyl)-1-methyl-2,4-dioxo-1,2,3,4-tetrahydro-thieno[2,3-d]pyrimidine-6-carboxylic acid benzyl ester], the IC50 was 0.036 µM. The same measure for `Cn1c(=O)n(Cc2ccccc2)c(=O)c2cc(C(=O)NCc3ccccc3)sc21` [Example 148, 3-Benzyl-1-methyl-2,4-dioxo-1,2,3,4-tetrahydro-thieno[2,3-d]pyrimidine-6-carboxylic acid benzyl amide]: 0.54 µM; for `COc1ccc(CNC(=O)c2cc3c(=O)n(CCC(=O)c4ccccc4)c(=O)n(C)c3s2)cc1` [Example 254]: 1.5 µM. The same measure for `Cn1c(=O)n(Cc2ccccc2)c(=O)c2cc(C(=O)OCC3COc4ccccc4O3)sc21` (centres unmarked) [Example 151, 3-Benzyl-1-methyl-2,4-dioxo-1,2,3,4-tetrahydro-thieno[2,3-d]pyrimidine-6-carboxylic acid 2,3-dihydro-1,4-benzodioxin-2-ylmethyl ester]: > 100 µM; for `Cn1ccc2cc(COC(=O)c3cc4c(=O)n(Cc5ccccc5)c(=O)n(C)c4s3)ccc21` [Example 305, 3-Benzyl-1-methyl-2,4-dioxo-1,2,3,4-tetrahydro-thieno[2,3-d]pyrimidine-6-carboxylic acid 1-methyl-1H-indol-5-ylmethyl ester]: 46.7 µM; for `Cn1c(=O)n(Cc2ccccc2)c(=O)c2cc(C(=O)OCC3CCCCCC3)sc21` [Example 197, 3-Benzyl-1-methyl-2,4-dioxo-1,2,3,4-tetrahydro-thieno[2,3-d]pyrimidine-6-carboxylic acid cycloheptylmethyl ester]: > 100 µM. For `Cc1ccc(CCOC(=O)c2cc3c(=O)n(Cc4ccccc4)c(=O)n(C)c3s2)cc1` [Example 155, 3-Benzyl-1-methyl-2,4-dioxo-1,2,3,4-tetrahydro-thieno[2,3-d]pyrimidine-6-carboxylic acid 2-p-tolyl-ethyl ester], the IC50 came out at 62 µM. With `COc1ccc(CCNC(=O)c2cc3c(=O)n(Cc4ccccc4)c(=O)n(C)c3s2)cc1` [Example 355, 3-Benzyl-1-methyl-2,4-dioxo-1,2,3,4-tetrahydro-thieno[2,3-d]pyrimidine-6-carboxylic acid[2-(4-methoxy-phenyl)-ethyl]-amide], the IC50 is > 100 µM. The same measure for `C=C(C)Cn1c(=O)c2cc(C(=O)NCc3cccc(OC)c3)sc2n(C)c1=O` [Example 289]: 2.7 µM; for `CCCCC(CC)Cn1c(=O)c2cc(C(=O)NCc3ccc(OC)cc3)sc2n(C)c1=O` (centres unmarked) [Example 256]: 27.5 µM; for `Cn1c(=O)n(Cc2ccc(C(C)(C)C)cc2)c(=O)c2cc(C(=O)OCc3ccccc3)sc21` [Example 309, 3-(4-tert-Butyl-benzyl)-1-methyl-2,4-dioxo-1,2,3,4-tetrahydro-thieno[2,3-d]pyrimidine-6-carboxylic acid benzyl ester]: 0.056 µM. In the case of `Cn1c(=O)n(CCN2C(=O)c3ccccc3C2=O)c(=O)c2cc(C(=O)OCc3ccccc3)sc21` [Example 112, 3-[2-(1,3-Dioxo-1,3-dihydro-isoindol-2-yl)-ethyl]-1-methyl-2,4-dioxo-1,2,3,4-tetrahydro-thieno[2,3-d]pyrimidine-6-carboxylic acid benzyl ester], the IC50 is 2.9 µM.

As for `Cn1c(=O)n(Cc2ccccc2)c(=O)c2cc(C(=O)OCc3c(F)cccc3F)sc21` [Example 158, 3-Benzyl-1-methyl-2,4-dioxo-1,2,3,4-tetrahydro-thieno[2,3-d]pyrimidine-6-carboxylic acid 2,6-difluoro-benzyl ester], the IC50 is 16 µM.

Regarding `Cc1cc(Cn2c(=O)c3cc(C(=O)NCc4cccc(O)c4)sc3n(C)c2=O)ccc1C(=O)O` [Example 250, 4-[6-(3-hydroxy-benzylcarbamoyl)-1-methyl-2,4-dioxo-1,4-dihydro-2H-thieno[2,3-d]pyrimidin-3-ylmethyl]-2-methyl-benzoic acid], the IC50 worked out at 0.00765 µM. Next, `C=C(Cn1c(=O)c2cc(C(=O)OCc3ccccc3)sc2n(C)c1=O)C(=O)O` [Example 114]: 0.33 µM; `COc1ccc(CNC(=O)c2cc3c(=O)n(CCOc4ccc(F)cc4)c(=O)n(C)c3s2)cc1` [Example 234, 3-[2-(4-Fluoro-phenoxy)-ethyl]-1-methyl-2,4-dioxo-1,2,3,4-tetrahydro-thieno[2,3-d]pyrimidine-6-carboxylic acid 4-methoxy-benzylamide]: 0.15 µM; `Cn1c(=O)n(Cc2ccc(C(=O)O)cc2)c(=O)c2cc(C(=O)NCc3cccc(OC(F)F)c3)sc21` [Example 77, 4-[6-(3-Difluoromethoxy-benzylcarbamoyl)-1-methyl-2,4-dioxo-1,4-dihydro-2H-thieno[2,3-d]pyrimidin-3-ylmethyl]-benzoic acid]: 0.00655 µM. The same measure for `CCCCOC(=O)c1cc2c(=O)n(Cc3ccccc3)c(=O)n(C)c2s1` [Example 150, 3-Benzyl-1-methyl-2,4-dioxo-1,2,3,4-tetrahydro-thieno[2,3-d]pyrimidine-6-carboxylic acid butyl ester]: 13 µM; for `Cn1c(=O)c2cc(C(=O)OCc3ccccc3)sc2n(C)c1=O` [Example 127, 1,3-Dimethyl-2,4-dioxo-1,2,3,4-tetrahydro-thieno[2,3-d]pyrimidine-6-carboxylic acid benzyl ester]: 3.9 µM.

For the molecule `COc1cccc(CNC(=O)c2cc3c(=O)n(CCOc4ccc(Cl)cc4)c(=O)n(C)c3s2)c1` [Example 237, 3-[2-(4-chloro-phenoxy)-ethyl]-1-methyl-2,4-dioxo-1,2,3,4-tetrahydro-thieno[2,3-d]pyrimidine-6-carboxylic acid 3-methoxy-benzylamide], the IC50 was determined as 0.0925 µM.

For `CC/C=C/Cn1c(=O)c2cc(C(=O)NCc3ccc(OC)cc3)sc2n(C)c1=O` [Example 260], the IC50 worked out at 0.063 µM. Regarding `O=C(OCc1ccc2c(c1)OCO2)c1cc2c(=O)n(Cc3ccccc3)c(=O)[nH]c2s1` [Example 10, 3-Benzyl-2,4-dioxo-1,2,3,4-tetrahydro-thieno[2,3-d]pyrimidine-6-carboxylic acid 1,3-benzodioxol-5-ylmethyl ester], the IC50 turned out to be 0.068 µM.

For `COc1ccc(CNC(=O)c2cc3c(=O)n(CCS(=O)(=O)c4cccc(C(F)(F)F)c4)c(=O)n(C)c3s2)cc1` [Example 245, 1-Methyl-2,4-dioxo-3-[2-(3-trifluoromethyl-benzenesulfonyl)-ethyl]-1,2,3,4-tetrahydro-thieno[2,3-d]pyrimidine-6-carboxylic acid 4-methoxy-benzylamide], the IC50 came to 30 µM.

As to `COC(=O)C1CCC(Cn2c(=O)c3cc(C(=O)NCc4cccc(OC)c4)sc3n(C)c2=O)CC1` (centres unmarked) [Example 91, 4-[6-(3-Methoxy-benzylcarbamoyl)-1-methyl-2,4-dioxo-1,4-dihydro-2H-thieno[2,3-d]pyrimidin-3-ylmethyl]-cyclohexanecarboxylic acid methyl ester], the IC50 is 0.0496 µM. The same measure for `Cn1c(=O)n(Cc2ccccc2)c(=O)c2cc(C(=O)NCc3ccccc3-c3ccccc3)sc21` [Example 323, 3-Benzyl-1-methyl-2,4-dioxo-1,2,3,4-tetrahydro-thieno[2,3-d]pyrimidine-6-carboxylic acid (biphenyl-2-ylmethyl)-amide]: > 100 µM; for `CCC(C)n1c(=O)c2cc(C(=O)NCc3cccc(OC)c3)sc2n(C)c1=O` (centres unmarked) [Example 288]: 4.2 µM; for `C/C=C/Cn1c(=O)c2cc(C(=O)NCc3cccc(OC)c3)sc2n(C)c1=O` [Example 284]: 1.5 µM. The same measure for `COc1ccc(CNC(=O)c2cc3c(=O)n(CCSc4ccccc4)c(=O)n(C)c3s2)cc1` [Example 261]: 0.58 µM; for `CC(C)c1ccc(COC(=O)c2cc3c(=O)n(Cc4ccccc4)c(=O)n(C)c3s2)cc1` [Example 154, 3-Benzyl-1-methyl-2,4-dioxo-1,2,3,4-tetrahydro-thieno[2,3-d]pyrimidine-6-carboxylic acid 4-isopropyl-benzyl ester]: 32 µM. As to `Cn1c(=O)n(CCN2C(=O)c3ccccc3C2=O)c(=O)c2cc(C(=O)OCc3ccccc3)sc21` [Example 113, 3-[2-(1,3-Dioxo-1,3-dihydro-isoindol-2-yl)-ethyl]-1-methyl-2,4-dioxo-1,2,3,4-tetrahydro-thieno[2,3-d]pyrimidine-6-carboxylic acid benzyl ester], the IC50 stood at 2.9 µM. For `COc1cccc(CNC(=O)c2cc3c(=O)n(CCS(=O)(=O)c4ccc(C)cc4)c(=O)n(C)c3s2)c1` [Example 293], the IC50 was > 100 µM. Next, `Cc1c(C(=O)OCc2ccccc2)sc2[nH]c(=O)n(Cc3ccc(Br)cc3)c(=O)c12` [Example 301, 3-(4-Bromo-benzyl)-5-methyl-2,4-dioxo-1,2,3,4-tetrahydro-thieno[2,3-d]pyrimidine-6-carboxylic acid benzyl ester]: > 100 µM. The same measure for `Cn1c(=O)n(Cc2ccccc2)c(=O)c2cc(C(=O)NCc3ccc(N)cc3)sc21` [Example 321, 3-Benzyl-1-methyl-2,4-dioxo-1,2,3,4-tetrahydro-thieno[2,3-d]pyrimidine-6-carboxylic acid 4-amino-benzylamide]: > 100 µM; for `Cn1c(=O)n(Cc2ccccc2)c(=O)c2cc(C(=O)OCc3cc4ccccc4s3)sc21` [Example 304, 3-Benzyl-1-methyl-2,4-dioxo-1,2,3,4-tetrahydro-thieno[2,3-d]pyrimidine-6-carboxylic acid benzo[b]thiophen-2-ylmethyl ester]: 3.1 µM.
